{"source": "patent US20080045495A1", "about": "“Treatment of Patients with Cystic Disease by Alteration of Fibrocystin Proteolysis” (BOARD OF REGENTS, THE UNIVERSITY OF TEXAS SYSTEM, priority 2006, published 2008)", "key": {"[1]": {"tested_on": "fibrocystin cleavage in HEK-293 cells", "assay": "Luciferase reporter assay of fibrocystin cleavage (pFC-GV / pG5-luc) in HEK-293 cells", "assay_type": "cell-based, human", "details": "5 mM caffeine versus vehicle, HEK-293, 12 hours, FIG. 4D", "description": "(§1) Reporter Gene Assays—mIMCD-3 cells, HEK-293 cells, or HeLa cells were plated in 6-well dishes (3×10^5 cells/well) and cotransfected with 0.05 μg phRL-TK(Int−) encoding Renilla luciferase (Promega, Madison, Wis.), 0.1 μg Photinus luciferase reporter plasmids, and 0.01-0.3 μg effector plasmids. Luciferase assays were performed as described previously (Hiesberger, 2004). Relative luciferase activity was calculated as the ratio of Photinus and Renilla luciferase.\n(§2) FIG. 4 A is an image of a gel illustrating mIMCD3/FC cells were grown for 4 days and incubated with 0.1 μM thapsigargin (lane 2), 5 mM caffeine (lane 3), 75 μM dantrolene (lane 5), 200 μM ruthenium red (lane 7), or no additions (lanes 1, 4 and 6). After 2 hours, media were replaced with media lacking serum but containing the same supplements, and, in addition, 10 nM mifeprisone. Cell lysates were prepared after 24 hours and analyzed by immunoblotting using anti-V5 antibody. FIG. 4B is a graph of mIMCD-3 cells were transfected with 0.2 μg pG5-luc and either 0.2 μg pFC-GV or 0.2 μg pLDLR-GV. After 24 hours, cells were incubated in serum-free media in the presence or absence of 75 μM dantrolene. Relative luciferase activity was determined after 48 h. Data presented are mean ±SE of three separate transfections. The fibrocystin/Gal4-VP16 fusion protein is shown schematically below. Shaded box indicates the transmembrane segment; filled boxes indicate the N-terminal signal sequence and the C-terminal Gal4-VP16 fusion protein. FIG. 4C is an image of a gel illustrating HEK-293 cells transfected with 6 μg pFC-V5, and 8 hours later incubated in serum-free media containing 1-8 mM caffeine, 0.5 μM calphostin, or no additions. Cells were lysed after 16 h, and extracts were analyzed by immunoblotting using anti-V5 antibody. FIG. 4D is a graph of HEK-293 cells transfected with 0.2 μg pFC-GV and 0.2 μg pG5-luc. After 24 hours, cells were incubated in serum-free media containing 5 mM caffeine or no additions. Luciferase activity was measured after 12 hours. Data presented are mean ±SE of three separate transfections. FIG. 4E is an image of a gel illustrating HEK-293 cells stably expressing the m3 muscarinic receptor (lanes 1-4) and untransfected HEK-293 cells (lanes 5-8) were transfected with 6 μg pFC-V5. […] Cells were lysed after 16 hours, and extracts were analyzed by immunoblotting using anti-V5 antibody.\nTo quantitatively measure fibrocystin cleavage, a luciferase assay was developed that was similar to the ones employed to quantify the proteolytic cleavage of amyloid precursor protein (APP) and low density lipoprotein receptor related protein-1 (LRP1) (Cao, 2001; May, 2003). A plasmid (FC-GV) encoding the synthetic transcription factor Gal4-VP16 fused to the C-terminus of fibrocystin was generated. Proteolytic cleavage of the fibrocystin fusion protein releases Gal4-VP16, which translocates to the nucleus and activates a Gal4-responsive luciferase reporter gene (pG5-luc). Therefore, luciferase expression correlates with fibrocystin cleavage.\nTo quantify fibrocystin proteolysis in response to intracellular Ca^2+ release, the luciferase reporter assay was employed. HEK-293 cells were cotransfected with the plasmids pFC-GV and pG5-luc and incubated with either 5 mM caffeine or vehicle (as a control).\nFIG. 5A is an image of a gel that illustrates HEK-293 cells were transfected with 6 μg pFC-V5."}, "[2]": {"tested_on": "fibrocystin cleavage in mIMCD3/FC cells", "assay": "Immunoblot (anti-V5) of fibrocystin proteolytic fragments in mIMCD3/FC cells", "assay_type": "cell-based, human", "details": "FIG. 4A", "description": "Cell Culture, Transfection and Generation of Stable Cell Lines—mIMCD-3 cells were plated at a density of 500,000 cells/100 mm dish, and 24 hours and 48 hours later the cells were transfected with 2 μg of pFC-V5 using Effectene (Qiagen, Valencia, Calif.). Cells were incubated for an additional 72 hours and lysed in 100 μl buffer containing Tris-buffered saline, 0.5% Triton X-100, protease inhibitor cocktail (Hoffmann-La Roche Inc., Indianapolis, Ind.). Twenty μl of the lysates were analyzed by SDS-PAGE, and immunoblot analysis was performed using HRP-conjugated anti-V5 as described previously (Hiesberger, 2005). mIMCD3/FC and mIMCD3/EGFP cell lines with inducible expression of fibrocystin and EGFP, respectively, were produced by transfecting mIMCD-3 cells with 1.5 μg pSwitch and either 1.5 μg pGeneFC or 1.5 μg pGeneEGFP. Stable transfectants were isolated after 14 days of growth in media containing hygromycin (350 μg/ml) and zeocin (300 μg/ml). To test for inducible expression, cells derived from individual clones were treated with mifepristone (10 nM) for 48 h or left untreated, and proteins were analyzed by immunoblotting using HRP-conjugated anti-FLAG. HEK-293 cells stably transfected with the muscarinic acetylcholine receptor M3 were a generous gift from Trevor Shuttleworth (University of Rochester Medical center) (Yang, 1995).\nTo further investigate the proteolytic cleavage of fibrocystin, mIMCD3/FC cells were generated, in which the expression of recombinant human fibrocystin can be induced by treatment with mifepristone.\nFIG. 4 A is an image of a gel illustrating mIMCD3/FC cells were grown for 4 days and incubated with 0.1 μM thapsigargin (lane 2), 5 mM caffeine (lane 3), 75 μM dantrolene (lane 5), 200 μM ruthenium red (lane 7), or no additions (lanes 1, 4 and 6). After 2 hours, media were replaced with media lacking serum but containing the same supplements, and, in addition, 10 nM mifeprisone. Cell lysates were prepared after 24 hours and analyzed by immunoblotting using anti-V5 antibody. FIG. 4B is a graph of mIMCD-3 cells were transfected with 0.2 μg pG5-luc and either 0.2 μg pFC-GV or 0.2 μg pLDLR-GV. After 24 hours, cells were incubated in serum-free media in the presence or absence of 75 μM dantrolene. Relative luciferase activity was determined after 48 h. Data presented are mean ±SE of three separate transfections. The fibrocystin/Gal4-VP16 fusion protein is shown schematically below. […] Cells were lysed after 16 h, and extracts were analyzed by immunoblotting using anti-V5 antibody. […] Luciferase activity was measured after 12 hours. […] Cells were lysed after 16 hours, and extracts were analyzed by immunoblotting using anti-V5 antibody. […]"}, "[3]": {"tested_on": "fibrocystin cleavage in HEK-293 cells", "assay": "Immunoblot (anti-V5) of fibrocystin proteolysis in HEK-293 cells transfected with pFC-V5", "assay_type": "cell-based, human", "description": "as §2\nFIG. 5A is an image of a gel that illustrates HEK-293 cells were transfected with 6 μg pFC-V5. […] Fourteen hours later, cellular proteins were extracted and analyzed by immunoblotting using anti-V5 antibody. FIG. 5B is an image of a gel mIMCD3/FC cells were grown for 4 days, and expression of fibrocystin was induced by addition of 10 nM mifepristone. After 24 hours, media were supplemented with 0.1, 0.5, or 1 μM calphostin C. Thirty hours later, cells were harvested, and proteins were analyzed by immunoblotting using anti-V5 antibody. FIG. 5C is an image of a gel illustrating HEK-293 cells were transfected with 3 μg pFC-V5 and either 3 μg of the empty vector pEF-neo (lanes 1 and 3) or 3 μg pEF-PKCαA/E (lanes 2 and 4). After 12 hours media were changed to media containing 10% FCS (lanes 1 and 2) or 0.2% BSA (lanes 3 and 4). Forty-eight hours later, cells were harvested, and proteins were subjected to immunoblotting using anti-V5 antibody. FIG. 5D is a plot illustrating HEK-293 cells transfected with 0.2 μg pG5-luc and 0.2 μg pFC-GV, pLDLR-GV and/or pEF-PKCαA/E. After 16 hours, media were changed to serum-free media containing 100 nM PMA or 500 μM Br-cAMP. Twenty-four hours later, cells were harvested, and relative luciferase activities were determined. Data are the mean ±SE of three independent transfections."}, "[4]": {"tested_on": "fibrocystin cleavage in HEK-293(m3) cells", "description": "FIG. 4 A is an image of a gel illustrating mIMCD3/FC cells were grown for 4 days and incubated with 0.1 μM thapsigargin (lane 2), 5 mM caffeine (lane 3), 75 μM dantrolene (lane 5), 200 μM ruthenium red (lane 7), or no additions (lanes 1, 4 and 6). After 2 hours, media were replaced with media lacking serum but containing the same supplements, and, in addition, 10 nM mifeprisone. Cell lysates were prepared after 24 hours and analyzed by immunoblotting using anti-V5 antibody. FIG. 4B is a graph of mIMCD-3 cells were transfected with 0.2 μg pG5-luc and either 0.2 μg pFC-GV or 0.2 μg pLDLR-GV. After 24 hours, cells were incubated in serum-free media in the presence or absence of 75 μM dantrolene. Relative luciferase activity was determined after 48 h. Data presented are mean ±SE of three separate transfections. The fibrocystin/Gal4-VP16 fusion protein is shown schematically below. Shaded box indicates the transmembrane segment; filled boxes indicate the N-terminal signal sequence and the C-terminal Gal4-VP16 fusion protein. […] Cells were lysed after 16 h, and extracts were analyzed by immunoblotting using anti-V5 antibody. […] Luciferase activity was measured after 12 hours. […] Cells were lysed after 16 hours, and extracts were analyzed by immunoblotting using anti-V5 antibody."}, "[5]": {"tested_on": "fibrocystin cleavage in mIMCD-3 cells", "assay": "Luciferase reporter assay of fibrocystin cleavage (pFC-GV / pG5-luc) in mIMCD-3 cells", "assay_type": "cell-based, human", "details": "75 μM dantrolene, serum-free media, luciferase after 48 h, FIG. 4B", "description": "as §1\nFIG. 4 A is an image of a gel illustrating mIMCD3/FC cells were grown for 4 days and incubated with 0.1 μM thapsigargin (lane 2), 5 mM caffeine (lane 3), 75 μM dantrolene (lane 5), 200 μM ruthenium red (lane 7), or no additions (lanes 1, 4 and 6). […] Cell lysates were prepared after 24 hours and analyzed by immunoblotting using anti-V5 antibody. […] Relative luciferase activity was determined after 48 h. […] Cells were lysed after 16 h, and extracts were analyzed by immunoblotting using anti-V5 antibody. […] Luciferase activity was measured after 12 hours. […] Cells were lysed after 16 hours, and extracts were analyzed by immunoblotting using anti-V5 antibody.\nTo quantitatively measure fibrocystin cleavage, a luciferase assay was developed that was similar to the ones employed to quantify the proteolytic cleavage of amyloid precursor protein (APP) and low density lipoprotein receptor related protein-1 (LRP1) (Cao, 2001; May, 2003). […]"}}}
{"compound": "Cn1c(=O)c2c(ncn2C)n(C)c1=O", "note": "[caffeine]", "values": [{"measurement": "increase of luciferase activity", "setting": "[1]", "value": 10, "unit": "fold"}, {"measurement": "generation of FCA", "setting": "[2]; pretreatment with 5 mM caffeine, lysates after 24 hours", "value": "prevented"}, {"measurement": "fibrocystin proteolysis", "setting": "[3]; 5 mM caffeine, untransfected HEK-293 cells, 16 hours, FIG. 4E", "value": "triggered fibrocystin proteolysis"}, {"measurement": "proteolysis of fibrocystin", "setting": "[3]; 1-8 mM caffeine, serum-free media, HEK-293, lysed after 16 h, FIG. 4C", "value": "induced dose-dependent proteolysis"}, {"measurement": "fibrocystin proteolysis", "setting": "[4]", "value": "triggered fibrocystin proteolysis"}]}
{"compound": "O=C1CN(/N=C/c2ccc(-c3ccc([N+](=O)[O-])cc3)o2)C(O)=N1", "note": "[dantrolene]", "values": [{"measurement": "increase in luciferase activity (FC-GV versus LDLR-GV)", "setting": "[5]", "value": "abolished"}, {"measurement": "formation of FCA", "setting": "[2]; 75 μM dantrolene", "value": "abolished"}]}
{"compound": "N.N.N.N.N.N.N.N.N.N.N.N.N.N.[Cl-].[Cl-].[Cl-].[Cl-].[Cl-].[Cl-].[O-2].[O-2].[Ru+3].[Ru+3].[Ru+4]", "note": "[ruthenium red]", "values": [{"measurement": "formation of FCA", "setting": "[2]; pretreatment with 200 μM ruthenium red", "value": "abolished"}]}
{"compound": "C/C=C(/C)C(=O)O[C@H]1C(C)=C2[C@H]([C@@H]1OC(=O)CCCCCCC)[C@@](C)(OC(C)=O)C[C@H](OC(=O)CCC)[C@@]1(O)[C@H]2OC(=O)[C@@]1(C)O", "note": "[thapsigargin]", "values": [{"measurement": "generation of the FCA fragment", "setting": "[2]; pretreatment with 0.1 μM thapsigargin, lysates after 24 hours", "value": "abolished"}]}
